From patent US12617794B2, “GABAA positive allosteric modulator compounds, methods of making, and uses thereof” (NEUROCYCLE THERAPEUTICS, INC., priority 2019, dated 2026)
Where two headings read alike, the source gives them in different places.

What was measured:
Assay type in all cases: physicochemical
[1] = DVS of TPA023B Phosphate Form A (Example 33); conditions: for hygroscopicity: DVS; for crystal form after DVS test: XRPD
[2] = Slow cooling crystallization (Example 64); conditions: slow cooling to RT
Description: The suspensions were filtered to obtain saturated solution, and it was kept in an oil bath to cool to RT. The solids obtained were characterized.
The suspensions were filtered to obtain a saturated solution, and it was kept in an oil bath which was allowed to cool to RT naturally. Any solids obtained were characterized. […] No new phosphate Form was obtained.

Competitive slurry study = experiment: Competitive slurry study
Description: Determining which polymorphic form is more thermodynamically stable may be experimentally determined by conventional methods known in the art. For example, a competitive slurry experiment in which a 1:1 mixture of polymorphic forms is stirred for a period of time in a solvent in which both polymorphic forms are partly soluble may be conducted. It is accepted by those skilled in the art that if the 1:1 mixture converts entirely to one polymorphic form, that form that results is more thermodynamically stable of the two, while the other form is metastable.
TPA023B Phosphate of mixed forms was added into specific solvents and stirred at RT or 50° C. for 1 day. The suspensions were filtered and characterized by XRPD.

[3] = Slurry and stability study of phosphate (30.4, Example 35); conditions: IPAC, EA
Description: The suspensions were filtered and characterized by XRPD.

[4] = Preliminary (estimated) solubility study of TPA023B Phosphate Form A (30.3, Example 34); conditions: estimated by visual observation
Method: Then the mixture was agitated in a shaker block for at least 30 mins. Additional solvent was added in a stepwise manner until all solids were dissolved. The dissolution was checked by visual observation and the amount of solvent required to dissolve all the solids was recorded.

[5] = Fast cooling crystallization (Example 63); conditions: fast cooling to 4° C. or −20° C.
Method: The suspensions were filtered to obtain saturated solution which was cooled to final temperature (4° C. or −20° C.) immediately and characterized.
The suspensions were filtered to obtain saturated solutions which were immediately cooled to final temperature (4° C. or −20° C.). Any solids obtained were characterized.

[6] = Mechanical treatment (grinding) of Phosphate Form A; conditions: for crystal form after grinding (XRPD): ground manually with mortar and pestle, 3-5 minutes
Description: The crystal form was unchanged after grinding.

[7] = Liquid vapor diffusion (Example 61); conditions: RT, 6 days
Description: After filtration, the filtrate in a small vial was put into a bigger vial containing anti-solvent. The bigger vial was left at RT for days. If precipitation occurred, solid was collected and characterized.
After filtration, the filtrate was transferred into a small vial, which was then placed inside a bigger vial which contained anti-solvent. The bigger vial was left at RT for 6 days. If precipitation occurred, solid was collected and characterized. No new phosphate form was obtained.

[8] = Slurry of Phosphate Form A in acetone with different water content (Example 68); conditions: for Result (solid form after slurry): slurry in acetone at RT
Description: The suspension was stirred at RT for hours. The solid was isolated and analyzed. […] Phosphate dissociated when water content is >, 4% wt. in acetone at RT.

[9] = Hygroscopicity by dynamic vapor sorption (DVS), Example 4
Method: The hygroscopicity of Phosphate Polymorph Form A was measured by Dynamic vapor sorption (DVS). […] After DVS, XRPD confirmed that the crystalline form was retained (FIG. 19).

[10] = solvent 2-methyl tetrahydrofuran

## CC(C)(O)c1cnn2c(-c3ccc(F)c(-c4c(F)cccc4C#N)c3)cnc2n1 [Phosphate Polymorphic Form A, 2′,6-difluoro-5′-[3-(1-hydroxy-1-methylethyl)-imidazo[1,2-b][1,2,4]triazin-7-yl]biphenyl-2-carbonitrile]
[1]; listed as Phosphate Form A
  hygroscopicity: slightly hygroscopic
  crystal form after DVS test: remained unchanged
[1]; listed as phosphate Form A
  hygroscopicity: slight hygroscopicity
  crystal form after DVS test: no change
[1]; from 0 to 80% RH
  water absorbed (DVS): 0.68%
[2]; solvent 2-butanone
  Result (solid form obtained): Phosphate Form A
[2]; [10]
  Result (solid form obtained): No solid
[2]; solvent ACN
  Result (solid form obtained): Phosphate Form A
[2]; solvent Anisole
  Result (solid form obtained): No solid
[2]; solvent BAC
  Result (solid form obtained): Phosphate Form A
[2]; solvent Butanol
  Result (solid form obtained): Free Base Form E
[2]; solvent EA
  Result (solid form obtained): No solid
[2]; solvent Isoamyl alcohol
  Result (solid form obtained): Free Base Form E
[2]; solvent MAC
  Result (solid form obtained): No solid
[2]; solvent THF
  Result (solid form obtained): No solid
Competitive slurry study
  thermodynamic stability among phosphate forms: most thermodynamically stable form
[3]; 100 mg slurried in 2 mL THF, 2-Me THF, acetone and ACN at RT
  crystal form after slurry (XRPD): remains unchanged
[3]; THF, 2-Me-THF, Acetone, MTBE or ACN
  stability in solvents: stable
[4]; 1,4-Dioxane, organic solvent or mixture, thermodynamic from solid, 1,4-Dioxane, read-out: Solubility
  solubility: 25000 µg/mL
[4]; 2-Me THF, organic solvent or mixture, thermodynamic from solid, 2-Me THF, read-out: Solubility
  solubility: 20000 µg/mL
[4]; ACN, organic solvent or mixture, thermodynamic from solid, ACN, read-out: Solubility
  solubility: < 2000 µg/mL
[4]; DCM, organic solvent or mixture, thermodynamic from solid, DCM, read-out: Solubility
  solubility: 2000 µg/mL
[4]; DMF, organic solvent or mixture, thermodynamic from solid, DMF, read-out: Solubility
  solubility: 96000 µg/mL
[4]; DMSO, organic solvent or mixture, thermodynamic from solid, DMSO, read-out: Solubility
  solubility: 93000 µg/mL
[4]; EA, organic solvent or mixture, thermodynamic from solid, EA, read-out: Solubility
  solubility: < 2000 µg/mL
[4]; EA, listed as TPA023B Phosphate Form A
  solubility: <2000 µg/mL
[4]; Heptane, listed as TPA023B Phosphate Form A
  solubility: <1000 µg/mL
[4]; IPA, organic solvent or mixture, thermodynamic from solid, IPA, read-out: Solubility
  solubility: 2500 µg/mL
[4]; MTBE, organic solvent or mixture, thermodynamic from solid, MTBE, read-out: Solubility
  solubility: < 2000 µg/mL
[4]; MTBE, listed as TPA023B Phosphate Form A
  solubility: <1500 µg/mL
[4]; THF, organic solvent or mixture, thermodynamic from solid, THF, read-out: Solubility
  solubility: 28000 µg/mL
[4]; Water, listed as TPA023B Phosphate Form A
  solubility: <2000 µg/mL
[4]; acetone, organic solvent or mixture, thermodynamic from solid, Acetone, read-out: Solubility
  solubility: 7000 µg/mL
[4]; ethanol, organic solvent or mixture, thermodynamic from solid, Ethanol, read-out: Solubility
  solubility: 3000 µg/mL
[4]; heptane, organic solvent or mixture, thermodynamic from solid, Heptane, read-out: Solubility
  solubility: < 2000 µg/mL
[4]; methanol, organic solvent or mixture, thermodynamic from solid, Methanol, read-out: Solubility
  solubility: 9500 µg/mL
[4]; water, thermodynamic from solid, Water, read-out: Solubility
  solubility: < 2000 µg/mL
[5]; solvent 1,4-dioxane
  Result (solid form obtained): No solid
[5]; solvent 1-methyl-2-pyrrolidone
  Result (solid form obtained): No solid
[5]; solvent 2-butanone
  Result (solid form obtained): Phosphate Form A
[5]; [10]
  Result (solid form obtained): No solid
[5]; solvent 4-methyl-2-pentanone
  Result (solid form obtained): Phosphate Form A
[5]; solvent ACN
  Result (solid form obtained): Phosphate Form A
[5]; solvent Acetone
  Result (solid form obtained): Phosphate Form A
[5]; solvent Anisole
  Result (solid form obtained): No solid
[5]; solvent BAC
  Result (solid form obtained): Phosphate Form A
[5]; solvent Butanol
  Result (solid form obtained): Freebase form A
[5]; solvent DMF
  Result (solid form obtained): No solid
[5]; solvent DMSO
  Result (solid form obtained): No solid
[5]; solvent EA
  Result (solid form obtained): Phosphate Form A
[5]; solvent Ethyl formate
  Result (solid form obtained): Phosphate Form A
[5]; solvent Isoamyl alcohol
  Result (solid form obtained): New Free Base pattern K
[5]; solvent MAC
  Result (solid form obtained): Phosphate Form A
[5]; solvent MEK
  Result (solid form obtained): Phosphate Form A
[5]; solvent Propyl acetate
  Result (solid form obtained): Phosphate Form A
[5]; solvent THF
  Result (solid form obtained): No solid
[6]
  crystallinity after grinding: decreased
[6]; listed as Phosphate Form A
  crystal form after grinding (XRPD): unchanged
[6]; listed as TPA023B Phosphate Form A
  crystal form after grinding (XRPD): remained unchanged
[6]; listed as phosphate Form A
  crystal form after grinding (XRPD): no change
[7]; solvent 2-methyl tetrahydrofuran, anti-solvent Chloroform
  Result (solid form obtained): Phosphate Form A
[7]; solvent 2-methyl tetrahydrofuran, anti-solvent Methyl cyclohexane
  Result (solid form obtained): Phosphate Form A
[7]; solvent 2-methyl tetrahydrofuran, anti-solvent xylene
  Result (solid form obtained): Phosphate Form A
[7]; solvent DMAC, anti-solvent DCM
  Result (solid form obtained): No solid
[7]; solvent DMAC, anti-solvent EA
  Result (solid form obtained): No solid
[7]; solvent DMAC, anti-solvent Isopropyl ether
  Result (solid form obtained): No solid
[7]; solvent Diox, anti-solvent ACN
  Result (solid form obtained): No solid
[7]; solvent Diox, anti-solvent BAC
  Result (solid form obtained): Phosphate Form A
[7]; solvent Diox, anti-solvent DCM
  Result (solid form obtained): Phosphate Form A
[7]; solvent Diox, anti-solvent Heptane
  Result (solid form obtained): Phosphate Form A
[7]; solvent Diox, anti-solvent Isopropyl ether
  Result (solid form obtained): Phosphate Form A
[7]; solvent MEK, anti-solvent Cyclohexanone
  Result (solid form obtained): Phosphate Form A
[7]; solvent MEK, anti-solvent DCM
  Result (solid form obtained): Phosphate Form A
[7]; solvent MEK, anti-solvent MAC
  Result (solid form obtained): No solid
[7]; solvent MEK, anti-solvent MTBE
  Result (solid form obtained): No solid
[7]; solvent MEK, anti-solvent Trichloromethane
  Result (solid form obtained): Phosphate Form A
[7]; solvent NMP, anti-solvent Chloroform
  Result (solid form obtained): No solid
[7]; solvent NMP, anti-solvent Isopropyl ether
  Result (solid form obtained): No solid
[7]; solvent NMP, anti-solvent MEK
  Result (solid form obtained): No solid
[7]; solvent THF, anti-solvent ACN
  Result (solid form obtained): No solid
[7]; solvent THF, anti-solvent EA
  Result (solid form obtained): Phosphate Form A
[7]; solvent THF, anti-solvent N-pentane
  Result (solid form obtained): Phosphate Form A
[7]; solvent THF, anti-solvent Toluene
  Result (solid form obtained): Phosphate Form A
[7]; solvent THF, anti-solvent Trichloromethane
  Result (solid form obtained): No solid
[8]; water content 3 wt. %
  Result (solid form after slurry): Phosphate Form A
[8]; water content 3.5 wt. %
  Result (solid form after slurry): Phosphate Form A
[8]; water content 4 wt. %
  Result (solid form after slurry): Phosphate Form A + Free Base Form E
[8]; water content 4.5 wt. %
  Result (solid form after slurry): Phosphate Form A + Free Base Form E
[8]; water content 5 wt. %
  Result (solid form after slurry): Phosphate Form A + Free Base Form E
[8]; water content 5.5 wt. %
  Result (solid form after slurry): Phosphate Form A + Free Base Form E
[8]; water content 6 wt. %
  Result (solid form after slurry): Phosphate Form A + Free Base Form E
[8]; water content <3.5% wt., RT
  solid form after slurry in acetone: remained unchanged
[8]; water content >, 4% wt. in acetone at RT
  solid form after slurry in acetone: dissociated
[9]
  crystalline form after DVS (XRPD): retained
  reversible mass increase (DVS): about 1.08%
